Starred links: 1 amine or outer side, 2 acyl side, 3 side chain; linkers in the order of their positions; H or OH if unused. Non-standard residues stand in square brackets, D forms with d. Residues, ends and D or L forms follow the SMILES beside them. Chg = N[C@H](C(=O)O)C1CCCCC1; Suc = O=C(CCC(=O)[*:2])[*:1]
Experiments:
[1] = Inhibition of HCV NS3 protease by FRET assay; parameters: species or system Hepacivirus hominis
[2] = system: Hepatitis C virus; test: Antiviral activity against HCV in replicon assay; assay type: functional, Hepacivirus hominis; conditions: read-out: ED50 (the source's name)
[3] = system: Hepatitis C virus; test: Inhibition of HCV 1b NS3 protease; parameters: species or system Hepatitis C virus subtype 1b
[4] = target: NS3 (Hepatitis C virus, UniProt A3EZJ3); test: Inhibition of HCV 1a NS3 protease; parameters: species or system Hepatitis C virus subtype 1a
Chain of NS3 (A3EZJ3 whole entry): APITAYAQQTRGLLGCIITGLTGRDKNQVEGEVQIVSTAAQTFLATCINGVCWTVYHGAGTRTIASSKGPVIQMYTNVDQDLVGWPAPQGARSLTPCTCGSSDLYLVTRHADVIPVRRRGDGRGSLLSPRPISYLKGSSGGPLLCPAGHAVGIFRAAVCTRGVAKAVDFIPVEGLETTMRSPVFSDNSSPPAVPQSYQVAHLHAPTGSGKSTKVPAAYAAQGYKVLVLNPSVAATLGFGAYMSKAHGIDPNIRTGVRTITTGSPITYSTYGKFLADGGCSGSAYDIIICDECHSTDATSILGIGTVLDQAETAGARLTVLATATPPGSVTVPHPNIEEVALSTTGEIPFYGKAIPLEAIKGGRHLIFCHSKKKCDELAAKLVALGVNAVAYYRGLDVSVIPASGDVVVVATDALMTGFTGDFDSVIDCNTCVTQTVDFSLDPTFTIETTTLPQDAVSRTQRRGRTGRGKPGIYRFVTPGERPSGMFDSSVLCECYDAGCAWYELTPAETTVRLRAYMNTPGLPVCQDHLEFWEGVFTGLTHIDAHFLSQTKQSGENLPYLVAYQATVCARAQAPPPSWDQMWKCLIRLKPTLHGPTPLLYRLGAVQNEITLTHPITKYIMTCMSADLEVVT

| Ki [1] | EC50 [2] | Ki [4] | SMILES | Ki [3] |
| --- | --- | --- | --- | --- |
| 0.18 µM | > 10 µM | – | C=C[C@@H]1C[C@]1(NC(=O)[C@@H](NC(=O)[C@@H](NC(=O)OC(C)(C)C)C(C)(C)C)c1ccc(Oc2cc(-c3ccccc3)nc3cc(OC)ccc23)cc1)C(=O)NS(=O)(=O)C1CC1 | – |
| 2.6 µM | – | – | C=C[C@@H]1C[C@]1(NC(=O)[C@@H](NC(=O)[C@@H](NC(=O)OC(C)(C)C)C(C)(C)C)c1ccc(Oc2cccc(Cl)n2)cc1)C(=O)NS(=O)(=O)C1CC1 | – |
| 34 µM | – | – | C=C[C@@H]1C[C@]1(NC(=O)[C@H](NC(=O)[C@@H](NC(=O)OC(C)(C)C)C(C)(C)C)c1ccc(OC)cc1)C(=O)NS(=O)(=O)C1CC1 | – |
| 5.4 µM | – | – | C=C[C@@H]1C[C@]1(NC(=O)[C@@H](NC(=O)[C@@H](NC(=O)OC(C)(C)C)C(C)(C)C)c1ccc(OC)cc1)C(=O)NS(=O)(=O)C1CC1 | – |
| 0.29 µM | > 10 µM | – | C=C[C@@H]1C[C@]1(NC(=O)[C@@H](NC(=O)[C@@H](NC(=O)OC(C)(C)C)C(C)(C)C)c1ccc(Oc2nc(-c3ccncc3)cc3ccccc23)cc1)C(=O)NS(=O)(=O)C1CC1 | – |
| 1.1 µM | – | – | C=C[C@@H]1C[C@]1(NC(=O)[C@H](NC(=O)[C@@H](NC(=O)OC(C)(C)C)C(C)(C)C)c1ccc(Oc2nc(Cl)cc3ccccc23)cc1)C(=O)NS(=O)(=O)C1CC1 | – |
| 0.23 µM | > 10 µM | – | C=C[C@@H]1C[C@]1(NC(=O)[C@@H](NC(=O)[C@@H](NC(=O)OC(C)(C)C)C(C)(C)C)c1ccc(Oc2cc(-c3ccccc3)nc3cc(OC)ccc23)cc1)C(=O)NS(=O)(=O)c1ccccc1 | – |
| 0.41 µM | > 10 µM | – | C=C[C@@H]1C[C@]1(NC(=O)[C@@H](NC(=O)[C@@H](NC(=O)OC(C)(C)C)C(C)(C)C)c1ccc(Oc2nc(Cl)cc3ccccc23)cc1)C(=O)NS(=O)(=O)C1CC1 | – |
| 0.27 µM | > 10 µM | – | C=C[C@@H]1C[C@]1(NC(=O)[C@@H](NC(=O)[C@@H](NC(=O)OC(C)(C)C)C(C)C)c1ccc(Oc2cc(-c3ccccc3)nc3cc(OC)ccc23)cc1)C(=O)NS(=O)(=O)c1ccccc1 | – |
| 0.2 µM | – | – | C=C[C@@H]1C[C@]1(NC(=O)[C@@H](NC(=O)[C@@H](NC(=O)OC(C)(C)C)C(C)C)c1ccc(Oc2cc(-c3ccccc3)nc3cc(OC)ccc23)cc1)C(=O)NS(=O)(=O)C1CC1 | – |
| 0.78 µM | > 10 µM | – | COc1ccc2c(Oc3ccc([C@H](NC(=O)[C@@H](NC(=O)OC(C)(C)C)C(C)(C)C)C(=O)N[C@@H](CC(F)F)C(=O)NS(=O)(=O)C4CC4)cc3)cc(-c3ccccc3)nc2c1 | – |
| 0.4 µM | > 10 µM | – | C=C[C@@H]1C[C@]1(NC(=O)[C@H](NC(=O)[C@@H](NC(=O)OC(C)(C)C)C(C)C)c1ccc(Oc2cc(-c3ccccc3)nc3cc(OC)ccc23)cc1)C(=O)NS(=O)(=O)c1ccccc1 | – |
| 7 µM | – | – | C=C[C@@H]1C[C@]1(NC(=O)[C@@H](NC(=O)[C@@H](NC(=O)OC(C)(C)C)C(C)(C)C)c1ccc(Oc2ccccn2)cc1)C(=O)NS(=O)(=O)C1CC1 | – |

Further lines, the molecule ahead of its results:

| SMILES | Ki [1] | EC50 [2] | Ki [4] | Ki [3] |
| --- | --- | --- | --- | --- |
| CC(C)(C)OC(=O)N[C@H]1CCCCC/C=C\[C@@H]2C[C@@]2(C(=O)NS(=O)(=O)C2CC2)NC(=O)[C@H](c2ccc(Oc3nc(Cl)cc4ccccc34)cc2)NC1=O | 0.074 µM | > 10 µM | – | – |
| CC(C)(C)OC(=O)N[C@H]1CCCCC/C=C\[C@@H]2C[C@@]2(C(=O)NS(=O)(=O)C2CC2)NC(=O)[C@H](c2ccc(Oc3nc(-c4ccncc4)cc4ccccc34)cc2)NC1=O | 0.24 µM | – | – | – |
| CC[C@H](C)[C@H](NC(=O)[C@@H](NC(=O)CCC(=O)O)C1CCCCC1)C(=O)N1CCC[C@H]1C(=O)N[C@@H](CS)C(=O)O (Suc-[Chg]IPC-OH) | 23 µM | – | – | – |
| COc1ccc2c(Oc3ccc(C(NC(=O)[C@@H](NC(=O)OC(C)(C)C)C(C)(C)C)C(=O)N[C@@H](CC(F)F)C(=O)O)cc3)cc(-c3ccccc3)nc2c1 (stereo partly specified) | 2.8 µM | – | – | – |
| C=C[C@@H]1C[C@]1(NC(=O)[C@@H]1C[C@@H](Oc2cc(-c3ccccc3)nc3cc(OC)ccc23)CN1C(=O)[C@@H](NC(=O)OC(C)(C)C)C(C)C)C(=O)NS(=O)(=O)c1ccccc1 | 0.00076 µM | – | – | – |
| CCC[C@H](NC(=O)[C@@H]1C[C@@H](Oc2cc(-c3ccccc3)nc3cc(OC)ccc23)CN1C(=O)[C@@H](NC(=O)OC(C)(C)C)C(C)C)C(=O)NS(=O)(=O)c1ccccc1 | 0.3 µM | – | – | – |
| COc1ccc2c(Oc3ccc([C@H](NC(=O)[C@@H](NC(=O)OC(C)(C)C)C(C)(C)C)C(=O)NC4(C(=O)NS(=O)(=O)c5ccccc5)CC4)cc3)cc(-c3ccccc3)nc2c1 | 1.2 µM | > 10 µM | – | – |
| CCC[C@H](NC(=O)[C@@H](NC(=O)[C@@H](NC(=O)OC(C)(C)C)C(C)(C)C)c1ccc(Oc2cc(-c3ccccc3)nc3cc(OC)ccc23)cc1)C(=O)NS(=O)(=O)c1ccccc1 | 0.23 µM | > 10 µM | – | – |
| CCC[C@H](NC(=O)[C@@H](NC(=O)[C@@H](NC(=O)OC(C)(C)C)C(C)C)c1ccc(Oc2cc(-c3ccccc3)nc3cc(OC)ccc23)cc1)C(=O)NS(=O)(=O)c1ccccc1 | 0.28 µM | – | – | – |
| CC(C)(C)OC(=O)N[C@H]1CCCCC/C=C\[C@@H]2C[C@@]2(C(=O)O)NC(=O)[C@H](c2ccc(Oc3nc(Cl)cc4ccccc34)cc2)NC1=O | 1.1 µM | – | – | – |
| C=C[C@@H]1C[C@]1(NC(=O)C(NC(=O)[C@@H](NC(=O)OC(C)(C)C)C(C)C)c1ccc(Oc2cc(-c3ccccc3)nc3cc(OC)ccc23)cc1)C(=O)O (stereo partly specified) | 2.4 µM | 8.5 µM | – | – |
| COc1ccc2c(Oc3ccc([C@@H]4NC(=O)[C@@H](NC(=O)OC(C)(C)C)CCCCC/C=C\[C@@H]5C[C@@]5(C(=O)NS(=O)(=O)C5CC5)NC4=O)cc3)cc(-c3ccccc3)nc2c1 | 0.076 µM | 4.6 µM | – | – |
| CC[C@@H](C)[C@H](NC(=O)[C@@H](NC(=O)CCC(=O)O)C1CCCCC1)C(=O)N[C@H](C(=O)N[C@@H](CS)C(=O)O)c1ccccc1 | 1 µM | – | – | – |
| CCC[C@H](NC(=O)[C@@H](NC(=O)[C@@H](NC(=O)OC(C)(C)C)C(C)C)c1ccc(O)cc1)C(=O)NS(=O)(=O)c1ccccc1 | 130 µM | – | – | – |
| COc1ccc2c(O[C@@H]3C[C@H]4C(=O)N[C@]5(C(=O)O)C[C@H]5/C=C\CCCCC[C@H](NC(=O)OC5CCCC5)C(=O)N4C3)cc(-c3csc(NC(C)C)n3)nc2c1 [CILUPREVIR] | – | – | 0.0003 µM | 0.00066 µM |
| COc1ccc2c(Oc3ccc([C@@H]4NC(=O)[C@@H](NC(=O)OC(C)(C)C)CCCCC/C=C\[C@@H]5C[C@@]5(C(=O)NS(=O)(=O)c5ccccc5)NC4=O)cc3)cc(-c3ccccc3)nc2c1 | 0.095 µM | > 10 µM | – | – |
| CC(C)(C)OC(=O)N[C@H]1CCCCC/C=C\[C@@H]2C[C@@]2(C(=O)O)NC(=O)[C@H](c2ccc(Oc3nc(-c4ccncc4)cc4ccccc34)cc2)NC1=O | 1.3 µM | – | – | – |
| COc1ccc2c(Oc3ccc([C@@H]4NC(=O)[C@@H](NC(=O)OC(C)(C)C)CCCCC/C=C\[C@@H]5C[C@@]5(C(=O)O)NC4=O)cc3)cc(-c3ccccc3)nc2c1 | 0.79 µM | > 10 µM | – | – |

From ChEMBL document CHEMBL1146301, “Phenylglycine as a novel P2 scaffold in hepatitis C virus NS3 protease inhibitors” (Bioorg Med Chem, 2007)
